These results are taken from patent US11045457B2, “Piperidinyl-3-(aryloxy)propanamides and propanoates” (priority 2018, dated 2021).

One assay addresses SSTR1 (Homo sapiens (Human), UniProt P30872). Description: SSTR1 I-125 somatostatin competition binding assay for selectivity versus SSTR4 (membranes from CHO-K1 cells overexpressing SSTR1).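 As to all read-outs here: Filter-based radioligand binding, bound label counted by scintillation after 60 min incubation at room temperature.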 Particulars: for SSTR1 Binding pIC50: competition with I-125 labeled somatostatin, CHO-K1 SSTR1 membranes.
The target of assay [1] is T1, SSTR4 (Homo sapiens (Human), UniProt P31391). Nature of the assay: SSTR4 I-125 somatostatin competition binding assay (membranes from CHO-K1 cells overexpressing SSTR4). Particulars: competition with I-125 labeled somatostatin; for IC50: read-out: SSTR4 Binding pIC50 (converted).
Description: Membranes from CHO-K1 cells overexpressing SSTR4 are purchased from Perkin Elmer (catalog number ES-524-M400UA). Test compounds are suspended in DMSO and then diluted in assay buffer (25 mM HEPES pH 7.4, 10 mM MgCl2, 1 mM CaCl2), 0.5% BSA) plus 0.2 nM I-125 labeled somatostatin (Perkin Elmer catalog number NEX389). […] Then 1 μg of SSTR4 membranes in 50 μL assay buffer are added per well. The Plate is incubated for 60 minutes at room temperature. FilterMat A filters (Perkin Elmer catalog number 1450-421) are pre-soaked in 0.5% PEI (Sigma catalog number P3143). The contents of the assay plate are transferred to filters with a TomTech harvester and washed 5 times with 20 mM HEPES, 100 mM NaCl. The filters are dried in a microwave oven then transferred to sample bag containing a scintillator sheet (Perkin Elmer catalog number 1450-441). The scintillator sheets are melted to filters using a heat block. The filters are then read in a MicroBeta scintillation counter. Binding Ki curves are generated using Activity Base for Screening Data Management and the results are reported as pIC50.
Assay [2] deals with T1, SSTR4. Description: Inhibition of forskolin stimulated cAMP in CHO-K1 cells overexpressing SSTR4. Type of assay: cell-based. The note with it: for EC50: read-out: SSTR4 Activity pEC50 (converted). The gist of the method: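 Read-out is a HTRF LANCE Ultra cAMP competition using Eu-labelled streptavidin and biotin-cAMP, incubated 60 min at room temperature. It followed a 30 min room-temperature exposure of Kreb's Ringer-washed cells to compound plus forskolin. Potency is expressed as pEC50.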

SSTR1, sequence (P30872 whole entry): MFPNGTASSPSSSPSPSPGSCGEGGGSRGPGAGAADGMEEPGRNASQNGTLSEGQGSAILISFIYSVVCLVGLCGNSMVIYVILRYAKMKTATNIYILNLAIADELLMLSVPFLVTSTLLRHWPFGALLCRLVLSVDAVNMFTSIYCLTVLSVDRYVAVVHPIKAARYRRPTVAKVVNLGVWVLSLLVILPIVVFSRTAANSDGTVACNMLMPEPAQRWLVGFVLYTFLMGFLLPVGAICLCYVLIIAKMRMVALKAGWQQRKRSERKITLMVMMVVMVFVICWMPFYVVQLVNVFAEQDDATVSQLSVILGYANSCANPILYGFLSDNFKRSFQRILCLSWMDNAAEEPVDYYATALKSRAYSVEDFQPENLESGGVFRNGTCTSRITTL
T1 sequence (P31391 whole entry): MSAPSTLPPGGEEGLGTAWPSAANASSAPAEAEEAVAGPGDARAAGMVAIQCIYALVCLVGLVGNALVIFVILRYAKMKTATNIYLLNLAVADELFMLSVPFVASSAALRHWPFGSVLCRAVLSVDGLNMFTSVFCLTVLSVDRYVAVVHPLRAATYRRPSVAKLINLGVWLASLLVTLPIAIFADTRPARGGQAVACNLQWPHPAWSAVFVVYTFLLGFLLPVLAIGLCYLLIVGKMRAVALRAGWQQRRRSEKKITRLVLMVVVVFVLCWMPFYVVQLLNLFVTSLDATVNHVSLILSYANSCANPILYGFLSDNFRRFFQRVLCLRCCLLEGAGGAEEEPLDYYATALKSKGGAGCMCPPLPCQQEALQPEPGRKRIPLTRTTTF
Description for SSTR1: Membranes from CHO-K1 cells overexpressing SSTR1 are purchased from Perkin Elmer (catalog number ES-520-M400UA). […] Then 10 μg of SSTR1 membranes in 50 μL assay buffer are added per well. The plate is incubated for 60 minutes at room temperature. […] The contents of the assay plate are transferred to filters with a TomTech harvester and washed 5 times with 20 mM HEPES, 100 mM NaCl. […] The scintillator sheets are melted to the filters using a heat block. The filters are then read in a MicroBeta scintillation counter. Binding Ki curves are generated using Activity Base for Screening Data Management and the results are reported as pIC50.

Consider `CN1CC[C@@H](NC(=O)C(C)(C)COc2ncccc2C2CC2)C1` [Example 53, (R)-3-((3-cyclopropylpyridin-2-yl)oxy)-2,2-dimethyl-N-(1-methylpyrrolidin-3-yl)propanamide], for which, on SSTR1, the “SSTR1 Binding pIC50” value amounted to 4.6. At SSTR4 [1], the “SSTR4 Binding pIC50” value is recorded as 6.6. Besides, the “SSTR4 Activity pEC50” value on SSTR4 [2] was determined as 7.4.

`CN1CC[C@H](NC(=O)C(C)(C)COc2ccccc2Cl)[C@@H](F)C1` [Example 188, 3-(2-chlorophenoxy)-N-((3S,4S)-3-fluoro-1-methylpiperidin-4-yl)-2,2-dimethylpropanamide]: the “SSTR1 Binding pIC50” value on SSTR1 stood at 5.0. Besides, the “SSTR4 Binding pIC50” value at SSTR4 [1] is reported as 7.6. In addition, the “SSTR4 Activity pEC50” value at SSTR4 [2] is 8.2.

As for `CN1CC[C@@H](NC(=O)C(C)(C)COc2ccccc2C(F)(F)F)C1` [Example 65, (R)-2,2-dimethyl-N-(1-methylpyrrolidin-3-yl)-3-(2-(trifluoromethyl)phenoxy)propanamide], the “SSTR1 Binding pIC50” value on SSTR1 turned out to be 5.1. Besides, the “SSTR4 Binding pIC50” value at SSTR4 [1] is listed as 7.0. The “SSTR4 Activity pEC50” value at SSTR4 [2] was 7.9.

Turning to `C[C@@H]1C[C@H](NC(=O)C(C)(C)COc2ncccc2C2CC2)CCN1C` [Example 147, 3-((3-cyclopropylpyridin-2-yl)oxy)-N-((2R,4R)-1,2-dimethylpiperidin-4-yl)-2,2-dimethylpropanamide], the “SSTR1 Binding pIC50” value at SSTR1 came to 5.3. For the same compound, the “SSTR4 Binding pIC50” value at SSTR4 [1] is 7.5. Further, on SSTR4 [2], the “SSTR4 Activity pEC50” value is listed as 8.6.

As for `Cc1ccccc1[C@@H]1CNCC[C@H]1OC(=O)C(C)(C)COc1ncccc1C(F)(F)F` (racemic) [Example 168, trans-3-(o-tolyl)piperidin-4-yl 2,2-dimethyl-3-((3-(trifluoromethyl)pyridin-2-yl)oxy)propanoate], the IC50 on SSTR1 was 15800 nM; at SSTR4 [1] it was 158 nM. At SSTR4 [2], the EC50 was 25.1 nM.

In the case of `CN1CC[C@H](NC(=O)C(C)(C)COc2ncccc2C(F)(F)F)[C@H](c2ccccc2)C1` (relative stereo) [Example 163, 2,2-dimethyl-N-(cis-1-methyl-3-phenylpiperidin-4-yl)-3-((3-(trifluoromethyl)pyridin-2-yl)oxy)propanamide], the “SSTR1 Binding pIC50” value on SSTR1 stood at 5.2. Moreover, at SSTR4 [1], the “SSTR4 Binding pIC50” value turned out to be 6.1. In addition, the “SSTR4 Activity pEC50” value on SSTR4 [2] is reported as 7.3.

For `CN1CCC(NC(=O)C(C)(C)COc2ccccc2Cl)CC1` [Example 66, 3-(2-chlorophenoxy)-2,2-dimethyl-N-(1-methylpiperidin-4-yl)propanamide], the “SSTR1 Binding pIC50” value at SSTR1 was found to be 4.9. Also, at SSTR4 [1], the “SSTR4 Binding pIC50” value came to 7.0. Also, at SSTR4 [2], the “SSTR4 Activity pEC50” value is 7.7.

As to `C[C@@H]1CN(C)CC[C@H]1NC(=O)C(C)(C)COc1ncccc1OC(F)(F)F` (single isomer, unassigned) [Example 13, trans-N-(1,3-dimethylpiperidin-4-yl)-2,2-dimethyl-3-((3-(trifluoromethoxy)pyridin-2-yl)oxy)propanamide], the “SSTR4 Binding pIC50” value at SSTR4 [1] is given as 7.5. Besides, the “SSTR4 Activity pEC50” value at SSTR4 [2] turned out to be 8.4.

On to `CN1CCC(NC(=O)C(F)(F)COc2ccccc2Cl)CC1` [Example 215, 3-(2-chlorophenoxy)-2,2-difluoro-N-(1-methylpiperidin-4-yl)propanamide], for which the “SSTR4 Binding pIC50” value at SSTR4 [1] stood at 6.0. Besides, the “SSTR4 Activity pEC50” value on SSTR4 [2] was found to be 6.7.

Regarding `C[C@@H]1CN(C)CC[C@H]1NC(=O)C(C)(C)COc1ncccc1C1CC1` (relative stereo) [Example 20, trans-3-((3-cyclopropylpyridin-2-yl)oxy)-N-(1,3-dimethylpiperidin-4-yl)-2,2-dimethylpropanamide], the “SSTR4 Binding pIC50” value at SSTR4 [1] came to 7.2. At SSTR4 [2], the “SSTR4 Activity pEC50” value is given as 8.3.

With `Cc1cnc(OCC(C)(C)C(=O)N[C@@H]2CCNC[C@H]2F)c(C)c1` [Example 214, 3-((3,5-dimethylpyridin-2-yl)oxy)-N-((3R,4R)-3-fluoropiperidin-4-yl)-2,2-dimethylpropanamide], the “SSTR4 Binding pIC50” value at SSTR4 [1] is on record as 6.8. Besides, the “SSTR4 Activity pEC50” value on SSTR4 [2] turned out to be 8.2.

With `Cc1cnc(OCC(C)(C)C(=O)N[C@@H]2CCN(C)[C@H](C)C2)c(C)c1` [Example 218, N-((2R,4R)-1,2-dimethylpiperidin-4-yl)-3-((3,5-dimethylpyridin-2-yl)oxy)-2,2-dimethylpropanamide], the “SSTR4 Binding pIC50” value at SSTR4 [1] stood at 6.2. Besides, at SSTR4 [2], the “SSTR4 Activity pEC50” value is listed as 7.5.

As for `O=C(N[C@H]1CCNC[C@@H]1F)C(F)(F)COc1ncccc1C(F)(F)F` [Example 197, 2,2-difluoro-N-((3S,4S)-3-fluoropiperidin-4-yl)-3-((3-(trifluoromethyl)pyridin-2-yl)oxy)propanamide], the “SSTR4 Binding pIC50” value on SSTR4 [1] was found to be 7.0. On SSTR4 [2], the “SSTR4 Activity pEC50” value worked out at 7.7.

On to `CCOc1ccccc1OCC(C)(C)C(=O)NC1CCN(C)CC1` [Example 78, 3-(2-ethoxyphenoxy)-2,2-dimethyl-N-(1-methylpiperidin-4-yl)propanamide], for which the “SSTR4 Binding pIC50” value on SSTR4 [1] is on record as 6.7. At SSTR4 [2], the “SSTR4 Activity pEC50” value is recorded as 7.4.

On to `C[C@@H]1CN(CC#N)CC[C@H]1NC(=O)C(C)(C)COc1ncccc1OC(F)(F)F` (relative stereo) [Example 184, trans-N-(1-(cyanomethyl)-3-methylpiperidin-4-yl)-2,2-dimethyl-3-((3-(trifluoromethoxy)pyridin-2-yl)oxy)propanamide], for which the “SSTR4 Binding pIC50” value on SSTR4 [1] turned out to be 6.0. Moreover, the “SSTR4 Activity pEC50” value on SSTR4 [2] is 7.6.

As to `Cc1cccnc1OCC(F)(F)C(=O)N[C@H]1CCNC[C@@H]1F` [Example 201, 2,2-difluoro-N-((3S,4S)-3-fluoropiperidin-4-yl)-3-((3-methylpyridin-2-yl)oxy)propanamide], the “SSTR4 Binding pIC50” value on SSTR4 [1] is reported as 6.7. Also, the “SSTR4 Activity pEC50” value at SSTR4 [2] was 7.5.

As to `Cc1cccnc1OCC(F)(F)C(=O)N[C@@H]1CCN(C)C[C@H]1C` (racemic) [Example 199, N-(trans-1,3-dimethylpiperidin-4-yl)-2,2-difluoro-3-((3-methylpyridin-2-yl)oxy)propanamide], the IC50 on SSTR4 [1] is 794 nM. Further, the EC50 on SSTR4 [2] was 158 nM.

Consider `CN1CC[C@H](NC(=O)C(C)(C)COc2ncccc2OC(F)(F)F)[C@H](c2ccccc2)C1` (relative stereo) [Example 166, 2,2-dimethyl-N-(cis-1-methyl-3-phenylpiperidin-4-yl)-3-((3-(trifluoromethoxy)pyridin-2-yl)oxy)propanamide], for which the “SSTR1 Binding pIC50” value at SSTR1 stood at 6.2. Further, the “SSTR4 Binding pIC50” value on SSTR4 [1] was found to be 7.4.

Take `C[C@H]1C[C@@H](NC(=O)C(C)(C)COc2ncccc2C(F)(F)F)CCN1C` (relative stereo) [Example 129, cis-N-(1,2-dimethylpiperidin-4-yl)-2,2-dimethyl-3-((3-(trifluoromethyl)pyridin-2-yl)oxy)propanamide]: the “SSTR4 Binding pIC50” value at SSTR4 [1] was determined as 6.8. Besides, the “SSTR4 Activity pEC50” value on SSTR4 [2] turned out to be 7.7.

Regarding `CC[C@@H]1CN(C)CC[C@H]1NC(=O)C(C)(C)COc1ncccc1C(F)(F)F` (single isomer, unassigned) [Example 144], the “SSTR4 Binding pIC50” value at SSTR4 [1] was determined as 8.0. Further, the “SSTR4 Activity pEC50” value at SSTR4 [2] is 8.7.

With `Cc1cnc(OCC(C)(C)C(=O)N[C@@H]2CCN(C)C[C@H]2C)c(C)c1` (single isomer, unassigned) [Example 31, trans-N-(1,3-dimethylpiperidin-4-yl)-3-((3,5-dimethylpyridin-2-yl)oxy)-2,2-dimethylpropanamide], the IC50 at SSTR4 [1] is 251 nM. The EC50 at SSTR4 [2] was 25.1 nM.
